Results as given in patent US7314958B2, “Phenylbenzamides” (Bayer CropScience AG, priority 2002, dated 2008).

How the values were obtained:
[1] = test system: Erysiphe graminis f. sp. hordei; assay: Erysiphe test (barley)/protective; format: in vivo; conditions: Blumeria graminis, 168 h; comparative experiment; application rate 500 ppm; read-out: Example E Erysiphe test (barley) protective efficacy in %
Procedure: Erysiphe Test (Barley)/Protective • Solvent: 49 parts by weight of N,N-dimethylformamide • Emulsifier: 1 part by weight of alkylaryl polyglycol ether To produce a suitable preparation of active compound, 1 part by weight of active compound is mixed with the stated amounts of solvent and emulsifier, and the concentrate is diluted with water to the desired concentration. To test for protective activity, young cereal plants are sprayed with the preparation of active compound at the stated application rate. 1 day after the treatment, the plants are inoculated with spores of Erysiphe graminis f. sp. hordei. The plants are then placed in a greenhouse at 70% relative atmospheric humidity and a temperature of 18° C. Evaluation is carried out 7 days after the inoculation. 0% means an efficacy which corresponds to that of the control, whereas an efficacy of 100% means that no infection is observed. The compounds were tested in comparative experiments according to use examples A [Spaerotheca test (cucumber)/protective], D [Alternaria test (tomato)/protective] and E [Erysiphe test (barley)/protective]. In each case, the application rate was 500 ppm.

[2] = test system: Alternaria solani; assay: Alternaria test (tomato)/protective; format: in vivo; conditions: 168 h, comparative experiment, application rate 500 ppm, read-out: Example D Alternaria test (tomato) protective efficacy in %
Procedure: Alternaria Test (Tomato)/Protective • Solvent: 49 parts by weight of N,N-dimethylformamide • Emulsifier: 1 part by weight of alkylaryl polyglycol ether To produce a suitable preparation of active compound, 1 part by weight of active compound is mixed with the stated amounts of solvent and emulsifier, and the concentrate is diluted with water to the desired concentration. To test for protective activity, young tomato plants are sprayed with the preparation of active compound at the stated application rate. 1 day after the treatment, the plants are inoculated with an aqueous spore suspension of Alternaria solani and then remain at 100% relative atmospheric humidity for 24 hours. The plants are then kept at about 96% relative atmospheric humidity and a temperature of 20° C. Evaluation is carried out 7 days after the inoculation. 0% means an efficacy which corresponds to that of the control, whereas an efficacy of 100% means that no infection is observed. The compounds were tested in comparative experiments according to use examples A [Spaerotheca test (cucumber)/protective], D [Alternaria test (tomato)/protective] and E [Erysiphe test (barley)/protective]. In each case, the application rate was 500 ppm.

[3] = logP determination by HPLC, reversed-phase column (C 18), acidic range; format: physicochemical; conditions: pH 2.3, 0.1% aqueous phosphoric acid/acetonitrile, 43° C.
Procedure: The logP values given in the Preparation Examples were determined in accordance with EEC Directive 79/831 Annex V.A8 by HPLC (High Performance Liquid Chromatography) using a reversed-phase column (C 18). Temperature: 43° C. Mobile phases for the determination in the acidic range: 0.1% aqueous phosphoric acid, acetonitrile; linear gradient from 10% acetonitrile to 90% acetonitrile. Calibration was carried out using unbranched alkan-2-ones (having 3 to 16 carbon atoms) with known logP values (determination of the logP values by the retention times using linear interpolation between two successive […]).

[4] = test system: Sphaerotheca fuliginea; assay: Sphaerotheca test (cucumber)/protective; format: in vivo; conditions: Podosphaera fuliginea, 168 h; comparative experiment; application rate 500 ppm; read-out: Example A Spaerotheca test (cucumber) protective efficacy in %
Procedure: Sphaerotheca Test (Cucumber)/Protective
• Solvents: 24.5 parts by weight of acetone 24.5 parts by weight of dimethylacetamide • Emulsifier: 1 part by weight of alkylaryl polyglycol ether
(§1) To produce a suitable preparation of active compound, 1 part by weight of active compound is mixed with the stated amounts of solvent and emulsifier, and the concentrate is diluted with water to the desired concentration.
To test for protective activity, young plants are sprayed with the preparation of active compound at the stated application rate. After the spray coating has dried on, the plants are inoculated with an aqueous spore suspension of Sphaerotheca fuliginea. The plants are then placed in a greenhouse at about 23° C. and a relative atmospheric humidity of about 70%.
Evaluation is carried out 7 days after the inoculation. 0% means an efficacy which corresponds to that of the control, whereas an efficacy of 100% means that no infection is observed.
The compounds were tested in comparative experiments according to use examples A [Spaerotheca test (cucumber)/protective], D [Alternaria test (tomato)/protective] and E [Erysiphe test (barley)/protective].
In each case, the application rate was 500 ppm.

[5] = test system: Sphaerotheca fuliginea; assay: Sphaerotheca test (cucumber)/protective; format: in vivo; conditions: protective, application rate 100 g/ha, evaluation 7 days after inoculation
[6] = test system: Venturia inaequalis; assay: Venturia test (apple)/protective; format: in vivo; conditions: protective, application rate 100 g/ha, evaluation 10 days after inoculation
Procedure: Venturia Test (Apple)/Protective
• Solvents: 24.5 parts by weight of acetone 24.5 parts by weight of dimethylacetamide • Emulsifier: 1.0 part by weight of alkylaryl polyglycol ether
as §1
To test for protective activity, young plants are sprayed with the preparation of active compound at the stated application rate. After the spray coating has dried on, the plants are inoculated with an aqueous conidia suspension of the apple scab pathogen Venturia inaequalis and then remain in an incubation cabin at about 20° C. and 100% relative atmospheric humidity for 1 day.
The plants are then placed in a greenhouse at about 21° C. and a relative atmospheric humidity of about 90%.
Evaluation is carried out 10 days after the inoculation. 0% means an efficacy which corresponds to that of the control, whilst an efficacy of 100% means that no infection is observed.

[7] = test system: Botrytis cinerea; assay: Botrytis test (bean)/protective; format: in vivo; conditions: protective, application rate 500 g/ha, evaluation 2 days after inoculation
Procedure: Botrytis Test (Bean)/Protective • Solvent: 49 parts by weight of N,N-dimethylformamide • Emulsifier: 1 part by weight of alkylaryl polyglycol ether To produce a suitable preparation of active compound, 1 part by weight of active compound is mixed with the stated amounts of solvent and emulsifier, and the concentrate is diluted with water to the desired concentration. To test for protective activity, young plants are sprayed with the preparation of active compound at the stated application rate. After the spray coating has dried on, 2 small pieces of agar colonized by Botrytis cinerea are placed onto each leaf. The inoculated plants are placed in a dark chamber at about 20° C. and 100% relative atmospheric humidity. 2 days after the inoculation, the size of the infected areas on the leaves is evaluated. 0% means an efficacy which corresponds to that of the control, whereas an efficacy of 100% means that no infection is observed.

[8] = test system: Puccinia recondita; assay: Puccinia test (wheat)/protective; format: in vivo; conditions: 240 h, protective, application rate 500 g/ha, evaluation 10 days after inoculation, read-out: Efficacy in %
Procedure: Puccinia Test (Wheat)/Protective • Solvent: 25 parts by weight of N,N-dimethylacetamide • Emulsifier: 0.6 part by weight of alkylaryl polyglycol ether To produce a suitable preparation of active compound, 1 part by weight of active compound is mixed with the stated amounts of solvent and emulsifier, and the concentrate is diluted with water to the desired concentration. To test for protective activity, young plants are inoculated with a spore suspension of Puccinia recondita in a 0.1% strength aqueous agar solution. After the spray coating has dried on, the plants are sprayed with the preparation of active compound at the stated application rate. The plants remain in an incubation cabin at 20° C. and 100% relative atmospheric humidity for 24 hours. The plants are then placed in a greenhouse at a temperature of about 20° C. and a relative atmospheric humidity of 80% to promote the development of rust pustules. Evaluation is carried out 10 days after the inoculation. 0% means an efficacy which corresponds to that of the control, whereas an efficacy of 100% means that no infection is observed.

CC(C)CC(C)c1ccccc1NC(=O)c1ccccc1C(F)(F)F (centres unmarked) [Example 2, N-[2-(1,3-dimethylbutyl)phenyl]-2-(trifluoromethyl)benzamide]
pest or weed control at 500 ppm [1]: 90%
pest or weed control at 500 ppm [2]: 95%
chromatographic logP [3]: 4.09
pest or weed control at 500 ppm [4]: 100%

CC(C)CC(C)c1ccccc1NC(=O)c1ccccc1I (centres unmarked) [Example 3, N-[2-(1,3-dimethylbutyl)phenyl]-2-iodobenzamide]
pest or weed control at 500 ppm [1]: 95%
pest or weed control at 500 ppm [2]: 95%
chromatographic logP [3]: 4.12
pest or weed control at 500 ppm [4]: 100%

CC(C)CC(C)c1ccccc1NC(=O)c1ccccc1Cl (centres unmarked) [Example 4, N-[2-(1,3-dimethylbutyl)phenyl]-2-chlorobenzamide]
chromatographic logP [3]: 3.98

CC(C)CC(C)c1ccccc1NC(=O)c1ccccc1Br (centres unmarked) [Example 5, N-[2-(1,3-dimethylbutyl)phenyl]-2-bromobenzamide]
pest or weed control at 500 ppm [1]: 30%
pest or weed control at 500 ppm [2]: 90%
chromatographic logP [3]: 4.01
pest or weed control at 500 ppm [4]: 95%

CC(CC(C)(C)C)c1ccccc1NC(=O)c1ccccc1C(F)(F)F (centres unmarked) [Example 6, 2-(trifluoromethyl)-N-[2-(1,3,3-trimethylbutyl)phenyl]benzamide]
chromatographic logP [3]: 4.36

CC(CC(C)(C)C)c1ccccc1NC(=O)c1ccccc1Cl (centres unmarked) [Example 7, 2-chloro-N-[2-(1,3,3-trimethylbutyl)phenyl]benzamide]
chromatographic logP [3]: 4.25

CC(CC(C)(C)C)c1ccccc1NC(=O)c1ccccc1Br (centres unmarked) [Example 8, 2-bromo-N-[2-(1,3,3-trimethylbutyl)phenyl]benzamide]
chromatographic logP [3]: 4.29

CC(CC(C)(C)C)c1ccccc1NC(=O)c1ccccc1I (centres unmarked) [Example 9, 2-iodo-N-[2-(1,3,3-trimethylbutyl)phenyl]benzamide]
chromatographic logP [3]: 4.4

CCC(C)(C)CC(C)c1ccccc1NC(=O)c1ccccc1I (centres unmarked) [Example 10, (2-iodophenyl)-N-[2-(1,3,3-trimethylpentyl)phenyl]carboxamide]
chromatographic logP [3]: 4.71

CCC(C)(C)CC(C)c1ccccc1NC(=O)c1ccccc1C(F)(F)F (centres unmarked) [Example 11, [2-(trifluoromethyl)phenyl]-N-[2-(1,3,3-trimethylpentyl)phenyl]carboxamide]
chromatographic logP [3]: 4.68

CCC(C)(C)CC(C)c1ccccc1NC(=O)c1ccccc1Cl (centres unmarked) [Example 12, (2-chlorophenyl)-N-[2-(1,3,3-trimethylpentyl)phenyl]carboxamide]
chromatographic logP [3]: 4.6

CCC(C)(C)CC(C)c1ccccc1NC(=O)c1ccccc1Br (centres unmarked) [Example 13, (2-bromophenyl)-N-[2-(1,3,3-trimethylpentyl)phenyl]carboxamide]
chromatographic logP [3]: 4.63

CCCCc1ccccc1NC(=O)c1ccccc1I [No.14.3(p. 42)]
pest or weed control at 500 ppm [1]: 0%
pest or weed control at 500 ppm [2]: 0%
pest or weed control at 500 ppm [4]: 0%

CCC(C)c1ccccc1NC(=O)c1ccccc1I (centres unmarked) [No.14.4(p. 42)]
pest or weed control at 500 ppm [1]: 20%
pest or weed control at 500 ppm [2]: 10%
pest or weed control at 500 ppm [4]: 10%

CCCCCCc1ccccc1NC(=O)c1ccccc1I [No.14.9(p. 42)]
pest or weed control at 500 ppm [1]: 0%
pest or weed control at 500 ppm [2]: 0%
pest or weed control at 500 ppm [4]: 0%

CCCCc1ccccc1NC(=O)c1ccccc1C(F)(F)F [No. 6.3(p. 24)]
pest or weed control at 500 ppm [1]: 10%
pest or weed control at 500 ppm [2]: 0%
pest or weed control at 500 ppm [4]: 10%

CCC(C)c1ccccc1NC(=O)c1ccccc1C(F)(F)F (centres unmarked) [No. 6.4(p. 24)]
pest or weed control at 500 ppm [1]: 0%
pest or weed control at 500 ppm [2]: 30%
pest or weed control at 500 ppm [4]: 30%

CCCCCCc1ccccc1NC(=O)c1ccccc1C(F)(F)F [No. 6.9(p. 24)]
pest or weed control at 500 ppm [1]: 0%
pest or weed control at 500 ppm [2]: 0%
pest or weed control at 500 ppm [4]: 0%

CC(C)CC(C)c1ccccc1NC(=O)c1ccccc1C(F)(F)F (centres unmarked) [drawing 10]
Efficacy in % [5]: 100%

CC(C)CC(C)c1ccccc1NC(=O)c1ccccc1I (centres unmarked) [drawing 11]
Efficacy in % [5]: 100%

CC(C)CC(C)c1ccccc1NC(=O)c1ccccc1C(F)(F)F (centres unmarked) [drawing 12]
Efficacy in % [6]: 100%

CC(C)CC(C)c1ccccc1NC(=O)c1ccccc1I (centres unmarked) [drawing 13]
Efficacy in % [6]: 100%

CC(C)CC(C)c1ccccc1NC(=O)c1ccccc1C(F)(F)F (centres unmarked) [drawing 14]
Efficacy in % [7]: 93%

CC(C)CC(C)c1ccccc1NC(=O)c1ccccc1C(F)(F)F (centres unmarked) [drawing 20]
pest or weed control at 500 g/ha [8]: 100%

CC(C)CC(C)c1ccccc1NC(=O)c1ccccc1I (centres unmarked) [drawing 21]
pest or weed control at 500 g/ha [8]: 100%

CC(C)CC(C)c1ccccc1NC(=O)c1ccccc1Br (centres unmarked) [drawing 22]
pest or weed control at 500 g/ha [8]: 100%

CC(C)CC(C)c1ccccc1NC(=O)c1ccccc1Cl (centres unmarked) [drawing 23]
pest or weed control at 500 g/ha [8]: 100%

CC(CC(C)(C)C)c1ccccc1NC(=O)c1ccccc1Br (centres unmarked) [drawing 24]
pest or weed control at 500 g/ha [8]: 100%

CC(CC(C)(C)C)c1ccccc1NC(=O)c1ccccc1Cl (centres unmarked) [drawing 25]
pest or weed control at 500 g/ha [8]: 100%

CCC(C)(C)CC(C)c1ccccc1NC(=O)c1ccccc1C(F)(F)F (centres unmarked) [drawing 26]
pest or weed control at 500 g/ha [8]: 100%

CC(CC(C)(C)C)c1ccccc1NC(=O)c1ccccc1C(F)(F)F (centres unmarked) [drawing 27]
pest or weed control at 500 g/ha [8]: 100%

CC(CC(C)(C)C)c1ccccc1NC(=O)c1ccccc1I (centres unmarked) [drawing 28]
pest or weed control at 500 g/ha [8]: 100%
